Columns and labels:
Type in all cases: cell-based
[1] = system: N87; assay: In vitro tumor cell proliferation assay (Cell Titer-Glo) in N87 cells; conditions: N87 human gastric carcinoma overexpressing HER2 and HER1; 72 hours exposure; read-out: IC50, activities in N87 cell lines
Procedure, shortened: (§1)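 Viability after 72 h drug exposure at 37 °C was read as CellTiter-Glo ATP luminescence, giving IC50. Cells (2.5×10^3/well, RPMI + 10% FBS) were compound-treated one day post-seeding, 0.1% DMSO final: A431 overexpresses HER1, N87 overexpresses HER2 and HER1.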

[2] = system: H1975 cells; assay: In vitro tumor cell proliferation assay (Cell Titer-Glo) in H1975 cells; conditions: NCI-H1975; H1975 human NSCLC expressing mutant HER1 (L858R,T790M); 72 hours exposure; read-out: IC50, activities in H 1975 cell lines
Procedure, shortened: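 After 72 h compound exposure at 37° C (top 10 uM down to 64 pM, 0.1% DMSO), viability of EGFR L858R/T790M-mutant H1975 cells was read as ATP luminescence.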

[3] = system: A431 cells; assay: In vitro tumor cell proliferation assay (Cell Titer-Glo) in A431 cells; conditions: Homo sapiens, A-431, 72 h, A431 human epidermoid carcinoma overexpressing HER1; 72 hours exposure; read-out: IC50, activities in A431 cell lines
Procedure, shortened: as §1

Row | Compound | IC50 [1] | IC50 [2] | IC50 [3]
1 | Cc1cccc(COc2ccc(Nc3ncnc4sc5c(c34)CCN(C(=O)/C=C/CN3CCCC3)C5)cc2Cl)n1 [Example 78, N-{3-chloro-4-[(6-methylpyridin-2-yl)methoxy]phenyl}-7-[(2E)-4-pyrrolidin-1-ylbut-2-enoyl]-5,6,7,8-tetrahydropyrido [4′,3′:4,5]thieno[2,3-d]pyrimidin-4-amine] | < 0.2 µM | 1 to 10 µM | 1 to 10 µM
2 | O=C(/C=C/CN1CCOCC1)N1CCc2c(sc3ncnc(Nc4ccc(OCc5cnccn5)c(Cl)c4)c23)C1 [Example 80, N-[3-chloro-4-(pyrazin-2-ylmethoxy)phenyl]-7-[(2E)-4-morpholin-4-ylbut-2-enoyl]-5,6,7,8-tetrahydropyrido [4′3′:4,5]thieno[2,3-d]pyrimidin-4-amine] | < 0.2 µM | 1 to 10 µM | 1 to 10 µM
3 | CCN(C)C/C=C/C(=O)N1CCc2c(sc3ncnc(Nc4ccc(OCc5cnccn5)c(Cl)c4)c23)C1 [Example 81, N-[3-chloro-4-(pyrazin-2-ylmethoxy)phenyl]-7-{(2E)-4-[ethyl(methyl)amino]but-2-enoyl}-5,6,7,8-tetrahydropyrido [4′,3′:4,5]thieno[2,3-d]pyrimidin-4-amine] | < 0.2 µM | 0.2 to 1 µM | 1 to 10 µM
4 | CC(C)N(C)C/C=C/C(=O)N1CCc2c(sc3ncnc(Nc4ccc(OCc5cnccn5)c(Cl)c4)c23)C1 [Example 82, N-[3-chloro-4-(pyrazin-2-ylmethoxy)phenyl]-7-{(2E)-4-[isopropyl(methyl)amino]but-2-enoyl}-5,6,7,8-tetrahydropyrido [4′3′:4,5]thieno[2,3-d]pyrimidin-4-amine] | < 0.2 µM | 0.2 to 1 µM | 1 to 10 µM
5 | O=C(/C=C/CN1CCCC1)N1CCc2c(sc3ncnc(Nc4ccc(OCc5cnccn5)c(Cl)c4)c23)C1 [Example 83, N-[3-chloro-4-(pyrazin-2-ylmethoxy)phenyl]-7-[(2E)-4-pyrrolidin-1-ylbut-2-enoyl]-5,6,7,8-tetrahydropyrido [4′3′:4,5]thieno[2,3-d]pyrimidin-4-amine] | < 0.2 µM | 0.2 to 1 µM | 1 to 10 µM

Next, values leading:

Row | IC50 [1] | IC50 [2] | IC50 [3] | Compound
6 | < 0.2 µM | 1 to 10 µM | 1 to 10 µM | Cc1cccc(COc2ccc(Nc3ncnc4sc5c(c34)CCN(C(=O)/C=C/CN3CCOCC3)C5)cc2Cl)n1 [Example 84, N-{3-chloro-4-[(6-methylpyridin-2-yl)methoxy]phenyl}-7-[(2E)-4-morpholin-4-ylbut-2-enoyl]-5,6,7,8-tetrahydropyrido [4′,3′:4,5]thieno[2,3-d]pyrimidin-4-amine]
7 | < 0.2 µM | 0.2 to 1 µM | 0.2 to 1 µM | CN(C)C/C=C/C(=O)N1CCc2c(sc3ncnc(Nc4ccc(OCc5cnccn5)c(Cl)c4)c23)C1 [Example 85, N-[3-chloro-4-(pyrazin-2-ylmethoxy)phenyl]-7-[(2E)-4-(dimethylamino)but-2-enoyl]-5,6,7,8-tetrahydropyrido [4′,3′:4,5]thieno[2,3-d]pyrimidin-4-amine]
8 | < 0.2 µM | 0.2 to 1 µM | 1 to 10 µM | CCN(CC)C/C=C/C(=O)N1CCc2c(sc3ncnc(Nc4ccc(OCc5cccnc5)c(Cl)c4)c23)C1 [Example 86, N-[3-chloro-4-(pyridin-3-ylmethoxy)phenyl]-7-[(2E)-4-(diethylamino)but-2-enoyl]-5,6,7,8-tetrahydropyrido [4′,3′:4,5]thieno[2,3-d]pyrimidin-4-amine]
9 | < 0.2 µM | 0.2 to 1 µM | 0.2 to 1 µM | CN(C)C/C=C/C(=O)N1CCc2c(sc3ncnc(Nc4ccc(OCc5cccnc5)c(Cl)c4)c23)C1 [Example 87, N-[3-chloro-4-(pyridin-3-ylmethoxy)phenyl]-7-[(2E)-4-(dimethylamino)but-2-enoyl]-5,6,7,8-tetrahydropyrido [4′,3′:4,5]thieno[2,3-d]pyrimidin-4-amine]

Reference: US8501755B2, “Tetrahydropyridothienopyrimidine compounds and methods of use thereof” (Bayer Intellectual Property GmbH, priority 2006, dated 2013)
